Measured values as given in the NIST ThermoML archive (doi:10.1021/acs.jced.5b00816).
Numbers after ± are expanded uncertainties.

How the values were obtained:
[1] = Molar enthalpy of transition or fusion; conditions: Crystal
[2] = molar heat capacity at constant pressure; conditions: 101.33 kPa
[3] = Solid-liquid equilibrium temperature; conditions: 101 kPa; Crystal; DTA

SMILES: CNC[C@H](O)[C@@H](O)[C@H](O)[C@H](O)CO [(2R,3R,4R,5S)-6-(methylamino)hexane-1,2,3,4,5-pentaol]
- Molar enthalpy of transition or fusion [1]: 12.3 ± 4.06 kcal/mol
- molar heat capacity at constant pressure ([2]; 290 K, Crystal): 322 ± 80 J/K/mol
- molar heat capacity at constant pressure ([2]; 295 K, Crystal): 327 ± 81 J/K/mol
- molar heat capacity at constant pressure ([2]; 300 K, Crystal): 333 ± 83 J/K/mol
- molar heat capacity at constant pressure ([2]; 305 K, Crystal): 338 ± 84 J/K/mol
- molar heat capacity at constant pressure ([2]; 310 K, Crystal): 343 ± 85 J/K/mol
- molar heat capacity at constant pressure ([2]; 315 K, Crystal): 348 ± 86 J/K/mol
- molar heat capacity at constant pressure ([2]; 320 K, Crystal): 353 ± 88 J/K/mol
- molar heat capacity at constant pressure ([2]; 325 K, Crystal): 358 ± 89 J/K/mol
- molar heat capacity at constant pressure ([2]; 330 K, Crystal): 362 ± 90 J/K/mol
- molar heat capacity at constant pressure ([2]; 335 K, Crystal): 367 ± 91 J/K/mol
- molar heat capacity at constant pressure ([2]; 340 K, Crystal): 372 ± 92 J/K/mol
- molar heat capacity at constant pressure ([2]; 345 K, Crystal): 377 ± 93 J/K/mol
- molar heat capacity at constant pressure ([2]; 350 K, Crystal): 382 ± 95 J/K/mol
- molar heat capacity at constant pressure ([2]; 355 K, Crystal): 387 ± 96 J/K/mol
- molar heat capacity at constant pressure ([2]; 360 K, Crystal): 392 ± 97 J/K/mol
- molar heat capacity at constant pressure ([2]; 365 K, Crystal): 396 ± 98 J/K/mol
- molar heat capacity at constant pressure ([2]; 370 K, Crystal): 401 ± 99 J/K/mol
- molar heat capacity at constant pressure ([2]; 375 K, Crystal): 406 ± 100 J/K/mol
- molar heat capacity at constant pressure ([2]; 380 K, Crystal): 411 ± 100 J/K/mol
- molar heat capacity at constant pressure ([2]; 380 K, Metastable liquid): 662 ± 160 J/K/mol
- molar heat capacity at constant pressure ([2]; 385 K, Metastable liquid): 664 ± 160 J/K/mol
- molar heat capacity at constant pressure ([2]; 390 K, Metastable liquid): 666 ± 160 J/K/mol
- molar heat capacity at constant pressure ([2]; 395 K, Metastable liquid): 668 ± 170 J/K/mol
- molar heat capacity at constant pressure ([2]; 400 K, Metastable liquid): 670 ± 170 J/K/mol
- molar heat capacity at constant pressure ([2]; 405 K, Metastable liquid): 671 ± 170 J/K/mol
- molar heat capacity at constant pressure ([2]; 410 K, Metastable liquid): 672 ± 170 J/K/mol
- molar heat capacity at constant pressure ([2]; 415 K, Metastable liquid): 673 ± 170 J/K/mol
- molar heat capacity at constant pressure ([2]; 420 K, Metastable liquid): 673 ± 170 J/K/mol
- molar heat capacity at constant pressure ([2]; 425 K, Metastable liquid): 674 ± 170 J/K/mol
- molar heat capacity at constant pressure ([2]; 430 K, Metastable liquid): 676 ± 170 J/K/mol
- molar heat capacity at constant pressure ([2]; 435 K, Metastable liquid): 678 ± 170 J/K/mol
- molar heat capacity at constant pressure ([2]; 440 K, Metastable liquid): 678 ± 170 J/K/mol
- Solid-liquid equilibrium temperature [3]: 400.9 ± 0.3 K
